Positions of bridges follow the written chain, without caps; N, C: chain ends. No end group written: not given here.
Legend:
C. albicans cells = test: Propidium iodide uptake in response to antifungal treatment (flow cytometry); type: cell-based, Candida albicans; details: 30 min; for treated cells no longer viable (PI positive): 50 µg/mL; for treated cells no longer viable (PI positive) / treated cells no longer viable / cells killed (PI positive): 30 °C, 1/2 PDB, flow cytometry; for treated cells no longer viable / cells killed (PI positive): 100 µg/mL
Method: A culture of C. albicans cells (OD600 = 0.3 in ½ PDB) was prepared. Aliquots of the culture (300 µL) were transferred to 1.5 mL tubes and treated with 3.125, 6.25, 12.5, 25, 50, or 100 µg/mL of Ppdef1, efinaconazole, ciclopirox, terbinafine, or tavaborole. Water or dimethyl sulfoxide (DMSO) was added to the untreated control samples. Propidium iodide (2 µL of 1 mg/mL stock) was also added to each sample, and the cells were incubated for 30 min at 30 °C before they were pelleted using centrifugation, resuspended in 300 µL of PBS and transferred to the wells of a 96-well plate. Cells were assessed for fluorescence using the PI channel on a FACS Canto 2 flow cytometer (BD). Cells with fluorescence of more than 185 rfu were considered positive for PI uptake.

[1] = Nail penetration assay (Franz cell nail adaptors); type: in vitro ADME, human; details: for maximum level of penetration on any one day: 10 days daily application, efinaconazole 10% as Jublia (maximum on day 8); for applied dose that penetrated the nails on all days, except for terbinafine on Days 7 and 9: efinaconazole 10%; for average penetration per day at Days 7-10: Ppdef1 1% (six replicates), terbinafine 1% in same vehicle (four replicates)
Method: Nail penetration assays were conducted essentially as described by Hui et al.. Human fingernail clippings (minimum size: 6.5 mm × 6.5 mm) were hydrated by placing them on folded Kimwipe tissues soaked in 3 mL of phosphate-buffered saline (PBS, pH 7.4) for 3 h at 26 °C. After hydration, nails were placed in plastic Franz cell nail adaptors (Perme Gear, Hellerton, PA, USA) with cotton wool (20 mg ± 2 mg) pre-soaked with 100 µL of phosphate-buffered saline with Tween 0.05% (PBST, pH 7.4) placed underneath the nail. Nails were sealed into the adaptors with silicone and checked for leaks by applying 10 µL of water to the top of the nail for at least 20 min (RT). Ppdef1 drug product (10 µL; 1% Ppdef1 in 50 mM acetate buffer, pH 4.0, 20% isopropanol, 20% propylene glycol), terbinafine (1% in 50 mM acetate buffer, pH 4.0, 20% isopropanol, 20% propylene glycol), or efinaconazole (formulated as Jublia (Valeant)) was applied to the top of the nail, and nails were incubated at 26 °C for 16 h in a Petri dish. A moist Kimwipe was added to the Petri dish to maintain humidity. After 16 h, the cotton wool was removed from the underside of the nail and set aside for analysis. The top of the nail was washed to collect excess test compound that had not penetrated the nail. First, a dry cotton swab was used to collect any excess liquid on the nail. A second swab soaked in 100 µL of water was then wiped over the top of the nail. An additional dry swab was used to collect any remaining liquid. A fresh piece of cotton wool soaked in 100 µL PBST was added to the underside of the nail. The nail was incubated at 26 °C for 1 h to allow for rehydration. Additional test solution (10 µL) was applied, and the process was repeated daily for 10 days. To quantify the amount of test item that had penetrated the nail, cotton wool removed from the underside of the nail was washed twice with 500 mM CaCl2 (200 µL) and then once with 0.1% TFA (200 µL). The cotton wool was incubated with the wash solution for 10 min at 26 °C for each wash. Cotton wool washes were pooled and analysed using RP-HPLC (300SB-C8 analytical column attached to a 1200 series HPLC (Agilent, Santa Clara, CA, USA)). Ethics approval for use of the nail clippings was granted by the La Trobe University Human Ethics Committee for the collection of nail clippings (approval number: HEC18414).

[2] = system: T. rubrum growing on human nail fragments; test: Cell killing of T. rubrum growing on nail fragments (PrestoBlue); type: cell-based, Trichophyton rubrum
Method: Human nail fragments (~2 mm × 2 mm) were sterilized in water at 99 °C for 4 h. A single nail fragment was placed into each well of a 96-well microtiter plate along with 100 µL of sterile water. T. rubrum conidia (100 µL) were added to obtain a final concentration of 1.5 × 10^5 conidia/mL. Control wells were inoculated with water only. Plates were then incubated for 96 h at 28 °C without shaking to allow T. rubrum to colonise the nail material. After the nail fragments were colonised with T. rubrum, they were treated with Ppdef1 or efinaconazole at a final concentration of 100 or 200 µg/mL. Six replicate wells were used per treatment, and two independent replicates were performed. As efinaconazole was dissolved in ethanol, all wells treated with Ppdef1 were adjusted with ethanol to a final concentration of 1% ethanol. Plates were then incubated for 20 h at 28 °C.
After the 20 h incubation, 20 µL of PrestoBlue® (Thermo Fisher, Scoresby, Victoria, Australia) was added to each well, and the mixture was transferred to a black-wall, clear-bottom microplate. […] The reaction was allowed to proceed for 24 h before fluorescence was measured in an M5e spectrophotometer (Molecular Devices, San Jose, CA, USA) using an excitation wavelength of 560 nm and an emission wavelength of 590 nm as described in the manufacturer’s instructions (Thermo Fisher, Scoresby, Victoria, Australia).

[3] = systemic (oral), after a 12 week treatment; cited from earlier work
From the text: These infections are hard to treat, can be painful, and have a cosmetic impact on the patient. Current topical treatments for onychomycosis require daily or weekly application for 48 weeks, and even these exhaustive treatment regimens produce low complete cure rates. Until 2014, […]® and its generic equivalents, with the active ingredient ciclopirox, were the only prescription strength topical onychom ... || Several systemic (oral) treatments have been approved for the treatment of onychomycosis. […] The FDA reported in its review of efinaconazole (Center for Drug Evaluation and Research; […] Fungicidal activity in the presence of keratin is hypothesised to correlate with the clinical efficacy for the topical onychomycosis products, ciclopirox and efinaconazole. The complete cu ...

[4] = terbinafine 1%, four replicates
[5] = 10 µL daily, 26 °C, RP-HPLC, average of six replicates
[6] = 10 µL daily, 26 °C, RP-HPLC, six replicates

| Compound | treated cells no longer viable (PI positive) (C. albicans cells) | treated cells no longer viable / cells killed (PI positive) (C. albicans cells) | maximum level of penetration on any one day [1, 4] [%] | applied dose that penetrated the nails on all days, except for terbinafine on Days 7 and 9 ([1]; terbinafine 1%) | cure rate [3] [%] | average penetration per day at Days 7-10 ([1]; 10 µL daily, 26 °C, RP-HPLC) [%] | further results |
| --- | --- | --- | --- | --- | --- | --- | --- |
| Cc1cc(C2CCCCC2)n(O)c(=O)c1 [ciclopirox] | ~ 20% | 58.7% |  |  |  |  |  |
| C=C1CCN([C@H](C)[C@](O)(Cn2cncn2)c2ccc(F)cc2F)CC1 [efinaconazole] | no significant cell death |  | 2.2 | less than 5% |  |  | average penetration per day on Days 1-7, 9, and 10 ([1]; efinaconazole 10% (Jublia), four replicates): approximately 0.5%; cell death (PI uptake) (C. albicans cells; any of the tested concentrations (3.125-100 µg/mL)): did not induce a significant cell death; hyphal biomass killed relative to the untreated control ([2]; 200 µg/mL, keratin as sole nutrient source, 1% ethanol, 28 °C, PrestoBlue): little impact; decrease in viable fungi ([2]; either concentration (100 or 200 µg/mL)): did not cause a significant decrease |
| CCC(C)n1ncn(-c2ccc(N3CCN(c4ccc(OCC5COC(Cn6cncn6)(c6ccc(Cl)cc6Cl)O5)cc4)CC3)cc2)c1=O (stereo not shown) [itraconazole] |  |  |  |  | 14 |  |  |
| OB1OCc2cc(F)ccc21 [tavaborole] | no significant cell death | less than 25% |  |  |  |  |  |
| CN(C/C=C/C#CC(C)(C)C)Cc1cccc2ccccc12 [terbinafine] | no significant cell death | less than 25% | 7.0 | less than 5% | 38 | 3.8 | applied dose that penetrated the nails on Days 7 and 9 ([1]; terbinafine 1%): less than 10%; penetration observed on most days ([1]; terbinafine 1%, daily for 10 days, four replicates): approximately 3.0% |
| AKVCTKPSKFFKGLCGTDGACTTACRKEGLHSGYCQLKGFLNSVCVCRKHC (disulfide 4-51, 15-35, 21-45, 25-47) [Ppdef1] |  |  |  |  |  | 26.1 | applied dose that penetrated the nail, first day ([1]; 10 µL applied daily, 26 °C, 16 h, cotton wool under nail, RP-HPLC, 1% Ppdef1 in 50 mM acetate pH 4.0, 20% isopropanol, 20% propylene glycol, average of six replicates): 13.3%; applied dose that penetrated the nail, Day 2 [1, 5]: 3.2%; applied dose that penetrated the nail, Day 3 [1, 5]: 2.0%; average penetration per day over Days 4, 5, and 6 [1, 6]: 13.1%; penetration by Day 7 [1, 6]: approximately 26%; applied dose that penetrated the nail on Days 7-10 ([1]; Ppdef1 1%): Greater than 20%; amount passed through the nail ([1]; daily application of 10 µL of a 1% solution for 10 days): more than 150 µg |

Source: publication PMC10672221, “The Plant Defensin Ppdef1 Is a Novel Topical Treatment for Onychomycosis” (Journal of Fungi, 2023)
